Experimental data: ChEMBL document CHEMBL5352460, “Antibacterial activity evaluation of pleuromutilin derivatives with 4(3H)-quinazolinone scaffold against methicillin-resistant Staphylococcusaureus” (Eur J Med Chem, 2023)
Values after ≈ are worked out from the molar mass of the structure shown.

Columns and labels:
Escherichia coli = experiment: microbe, parasite or virus in culture; type: functional; conditions: ATCC25922, time 20 hrs
Staphylococcus aureus [1] = experiment: microbe, parasite or virus in culture; type: functional; conditions: ATCC29213, time 20 hrs
Staphylococcus aureus [2] = experiment: microbe, parasite or virus in culture; type: functional; conditions: time 20 hrs
Staphylococcus aureus [3] = experiment: microbe, parasite or virus in culture; type: functional; conditions: ATCC25923, time 20 hrs
[4] = Antibacterial activity against Salmonella pullorum assessed as inhibition of bacterial growth incubated for 20 hrs by absorbance based analysis; type: functional, Salmonella enterica subsp. enterica serovar Pullorum; conditions: Salmonella enterica
[5] = tested on: Staphylococcus epidermidis; experiment: Antibacterial activity against methicillin-resistant Staphylococcus epidermidis assessed as inhibition of bacterial growth incubated for 20 hrs by absorbance based analysis; type: functional
[6] = Metabolic stability in rat liver microsomes assessed as intrinsic clearance incubated for 45 mins in the presence of NADPH by LC/MS analysis; type: ADME, Microsome; conditions: read-out: CLH
[7] = Cytotoxicity against mouse RAW264.7 cells assessed as inhibition of cell growth at 100 uM incubated for 72 hrs by CCK8 assay relative to control; type: toxicity, cell-based
Staphylococcus aureus [8] = experiment: Bactericidal activity against methicillin-resistant Staphylococcus aureus assessed as reduction in bacterial count at 1 to 10 times of MIC incubated for 24 hrs by serial dilution based time-kill kinetics assay; type: functional
Staphylococcus aureus [9] = experiment: Antibacterial activity against methicillin-resistant Staphylococcus aureus assessed as reduction in bacterial growth at 1 to 10 times of MIC by serial dilution based time-kill kinetics assay; type: functional, organism-based; conditions: time <= 24.0 hrs, TDE = time-dependent effect
[10] = Metabolic stability in rat liver microsomes assessed as parent compound remaining incubated for 45 mins in the presence of NADPH by LC/MS analysis; type: ADME, Microsome; conditions: read-out: Stability
[11] = Metabolic stability in rat liver microsomes assessed as half-life incubated for 45 mins in the presence of NADPH by LC/MS analysis; type: ADME, Microsome

Compound	MIC (Escherichia coli) [µg/mL]	MIC (Staphylococcus aureus [1]) [µg/mL]	MIC (Staphylococcus aureus [2]) [µg/mL]	MIC (Staphylococcus aureus [3]) [µg/mL]	MIC [4] [µg/mL]	MIC [5] [µg/mL]	microsomal CLint [6] [µL/min/mg]	inhibition at 72 h, 100 µM [7] [%]	Activity (Staphylococcus aureus [8]) [log10CFU/ml]	Activity (Staphylococcus aureus [9])	remaining at 0.75 h [10] [%]	half-life [11] [s]
C=C[C@]1(C)C[C@@H](OC(=O)CN2CCN(C(=O)c3nc4ccccc4c(=O)[nH]3)CC2)[C@]2(C)[C@H](C)CC[C@]3(CCC(=O)[C@H]32)[C@@H](C)[C@@H]1O	> 64	0.5 (≈ 0.808 µM)	0.5 (≈ 0.808 µM)	1 (≈ 1.62 µM)	> 64	2 (≈ 3.23 µM)	–	–	–	–	–	–
C=C[C@]1(C)C[C@@H](OC(=O)CSc2nc3c(c(=O)[nH]2)CCC3)[C@]2(C)[C@H](C)CC[C@]3(CCC(=O)[C@H]32)[C@@H](C)[C@@H]1O	> 64	0.25 (≈ 0.473 µM)	0.25 (≈ 0.473 µM)	0.25 (≈ 0.473 µM)	> 64	1 (≈ 1.89 µM)	–	–	–	–	–	–
C=C[C@]1(C)C[C@@H](OC(=O)CSc2nc3ccc(C)cc3c(=O)[nH]2)[C@]2(C)[C@H](C)CC[C@]3(CCC(=O)[C@H]32)[C@@H](C)[C@@H]1O	> 64	0.25 (≈ 0.452 µM)	0.5 (≈ 0.905 µM)	0.5 (≈ 0.905 µM)	> 64	2 (≈ 3.62 µM)	–	–	–	–	–	–
C=C[C@]1(C)C[C@@H](OC(=O)CSc2nc3ccc(Br)cc3c(=O)[nH]2)[C@]2(C)[C@H](C)CC[C@]3(CCC(=O)[C@H]32)[C@@H](C)[C@@H]1O	> 64	0.25 (≈ 0.405 µM)	0.25 (≈ 0.405 µM)	0.25 (≈ 0.405 µM)	> 64	2 (≈ 3.24 µM)	–	–	–	–	–	–
C=C[C@]1(C)C[C@@H](OC(=O)CN2CCN(Cc3nc4ccccc4c(=O)[nH]3)CC2)[C@]2(C)[C@H](C)CC[C@]3(CCC(=O)[C@H]32)[C@@H](C)[C@@H]1O	> 64	1 (≈ 1.65 µM)	2 (≈ 3.31 µM)	1 (≈ 1.65 µM)	> 64	2 (≈ 3.31 µM)	–	–	–	–	–	–
C=C[C@]1(C)C[C@@H](OC(=O)CSc2nc3ccccc3c(=O)n2-c2ccccc2)[C@]2(C)[C@H](C)CC[C@]3(CCC(=O)[C@H]32)[C@@H](C)[C@@H]1O	> 64	32 (≈ 52 µM)	32 (≈ 52 µM)	32 (≈ 52 µM)	> 64	64 (≈ 104 µM)	–	–	–	–	–	–
C=C[C@]1(C)C[C@@H](OC(=O)CSc2nc3c(C)cccc3c(=O)[nH]2)[C@]2(C)[C@H](C)CC[C@]3(CCC(=O)[C@H]32)[C@@H](C)[C@@H]1O	> 64	0.125 (≈ 0.226 µM)	0.125 (≈ 0.226 µM)	0.25 (≈ 0.452 µM)	> 64	1 (≈ 1.81 µM)	–	–	–	–	–	–
C=C[C@]1(C)C[C@@H](OC(=O)CN2CCN(c3nc4ccccc4c(=O)[nH]3)CC2)[C@]2(C)[C@H](C)CC[C@]3(CCC(=O)[C@H]32)[C@@H](C)[C@@H]1O	64 (≈ 108 µM)	0.125 (≈ 0.212 µM)	0.125 (≈ 0.212 µM)	0.063 (≈ 0.107 µM)	> 64	1 (≈ 1.69 µM)	3070	~60	3.05	Tde	0.21	48.6
C=C[C@]1(C)C[C@@H](OC(=O)CSc2nc3cc(Cl)ccc3c(=O)[nH]2)[C@]2(C)[C@H](C)CC[C@]3(CCC(=O)[C@H]32)[C@@H](C)[C@@H]1O	> 64	0.25 (≈ 0.436 µM)	0.5 (≈ 0.872 µM)	0.5 (≈ 0.872 µM)	> 64	1 (≈ 1.74 µM)	–	–	–	–	–	–
C=C[C@]1(C)C[C@@H](OC(=O)CSc2nc3cccc(C)c3c(=O)[nH]2)[C@]2(C)[C@H](C)CC[C@]3(CCC(=O)[C@H]32)[C@@H](C)[C@@H]1O	> 64	0.25 (≈ 0.452 µM)	0.25 (≈ 0.452 µM)	0.25 (≈ 0.452 µM)	> 64	2 (≈ 3.62 µM)	–	–	–	–	–	–
C=C[C@]1(C)C[C@@H](OC(=O)CSc2nc3cc(Br)ccc3c(=O)[nH]2)[C@]2(C)[C@H](C)CC[C@]3(CCC(=O)[C@H]32)[C@@H](C)[C@@H]1O	> 64	0.25 (≈ 0.405 µM)	0.5 (≈ 0.81 µM)	0.25 (≈ 0.405 µM)	> 64	4 (≈ 6.48 µM)	–	–	–	–	–	–
